One series concerns the target T1, Nk3R (Mus musculus, UniProt P47937).
T1 sequence (P47937 1-452): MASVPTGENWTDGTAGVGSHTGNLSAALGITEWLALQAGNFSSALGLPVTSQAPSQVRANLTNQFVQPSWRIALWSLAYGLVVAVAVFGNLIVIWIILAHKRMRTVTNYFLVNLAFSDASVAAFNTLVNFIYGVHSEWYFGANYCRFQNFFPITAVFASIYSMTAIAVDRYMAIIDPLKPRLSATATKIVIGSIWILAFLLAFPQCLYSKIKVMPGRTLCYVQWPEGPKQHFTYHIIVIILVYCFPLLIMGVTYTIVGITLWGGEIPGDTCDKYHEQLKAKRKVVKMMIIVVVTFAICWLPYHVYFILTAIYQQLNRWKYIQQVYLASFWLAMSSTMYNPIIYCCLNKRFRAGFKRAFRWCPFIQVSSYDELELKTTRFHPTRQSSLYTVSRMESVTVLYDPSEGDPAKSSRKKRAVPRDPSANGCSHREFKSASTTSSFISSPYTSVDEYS
The series is described as follows: Social interaction assay, osanetant. The class given is in vivo. More on the design: from tissue; host or cells: Living mice (wild-type C57Bl6/N males, Charles River). Particulars: SIS mice; acute systemic osanetant; listed as Osanetant. How it is done: Mice were administered the Nk3R antagonist osanetant (Axon Medchem, Axon 1533) either systemically or intra-brain region. Osanctant was dissolved in saline with 0.1% Tween 20 (vehicle). For systemic administration mice received an intraperitoneal (i.p.) injection (5 mg/kg) 20 minutes prior to behavioral testing. For microinfusions, guide cannulas were removed from mice and replaced with injector cannulas (Plastics One), which protruded 0.5 mm from the tip of the guide cannula. Injectors were attached to 5 μl Hamilton syringes with PE tubing (Plastics One) and mounted on a microinfusion pump (Harvard Apparatus) for controlled infusion of osanetant (0.3 μl vehicle with 375 ng dose per site injected over 6 minutes). For experiments using systemic administration of clozapine-N-oxide (CNO), CNO (Enzo Life Sciences-Biomol, BML-NS105-0005) was dissolved in saline (9 g/L NaCl) and injected (i.p.) at 5 mg/kg for hM4DREADD silencing or 2 mg/kg for hM3DREADD activation 20 minutes prior to behavioral testing. CNO was also administered chronically in drinking water (0.5 mg CNO/100 ml water).

The conditions of series [1]: Spooren et al., 2005; cited from earlier work.
Series [2] deals with T2, hM4DREADD in Tac2+ neurons (Homo sapiens, UniProt P08173, A203G/Y113C).
T2 construct: host or cells: Tac2+ neurons of Tac2-Cre mice (dBNSTa, DMH or CeA), transduced in vivo with AAV2-EF1a-DIO-hM4D-mCherry
T2 sequence (P08173 1-479 Y113C/A203G): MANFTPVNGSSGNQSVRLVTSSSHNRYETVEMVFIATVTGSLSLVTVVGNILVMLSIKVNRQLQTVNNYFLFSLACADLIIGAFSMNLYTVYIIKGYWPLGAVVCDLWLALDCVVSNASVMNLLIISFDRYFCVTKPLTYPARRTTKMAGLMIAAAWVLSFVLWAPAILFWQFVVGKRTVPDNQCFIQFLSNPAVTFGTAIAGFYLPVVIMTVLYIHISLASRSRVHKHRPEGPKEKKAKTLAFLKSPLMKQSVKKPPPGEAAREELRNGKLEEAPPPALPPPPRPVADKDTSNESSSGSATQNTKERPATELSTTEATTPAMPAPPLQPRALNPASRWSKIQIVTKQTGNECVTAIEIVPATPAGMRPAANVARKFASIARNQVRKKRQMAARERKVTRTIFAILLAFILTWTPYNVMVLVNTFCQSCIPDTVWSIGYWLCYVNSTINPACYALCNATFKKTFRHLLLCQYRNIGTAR
The series is described as follows: Shock reactivity, CNO silencing of Tac2+ neurons (hM4DREADD). Particulars: hM4DREADD in CeA. The class given is in vivo, mouse. How it is done: The protocol for tone trace fear conditioning was performed as previously described (Cushman et al., 2014; incorporated by reference in its entirety) using fear conditioning boxes previously described in detail (Haubensak et al., 2010; Kunwar et al., 2015; incorporated by reference in their entirety). Briefly, mice were transported in squads of four on a white cart to a novel behavioral testing room containing 4 sound-attenuating fear-conditioning chambers (Med Associates). This “training context” was comprised of flat grid flooring (wired to a shock generator and scrambler for footshock delivery, Med Associates), houselights, and the presence of an internal fan for background noise. Chambers were sprayed with 70% Simple Green solution on the underlying chamber pan to generate a unique contextual scent and chambers were cleaned with 70% EtOH between squads. […] Freezing behavior during the baseline period as well as during each tone presentation (“during”) and trace interval (“post”) were assessed as previously described (Zelikowsky et al., 2014; incorporated by reference in its entirety) using automated near-infrared video tracking equipment and computer software (VideoFreeze, Med Associates). Shock reactivity (motion, arbitrary units) was measured during the 2 second shock US as well as the 3 seconds immediately following. […]

The source of these data is US12083109B2, “Neurokinin antagonists and uses thereof” (California Institute of Technology, priority 2017, dated 2024).

Molecules are shown by their SMILES. Entries after “also recorded” stand apart in the source; their conditions may differ.

As for `CC(=O)N(C)C1(c2ccccc2)CCN(CCC[C@]2(c3ccc(Cl)c(Cl)c3)CCCN(C(=O)c3ccccc3)C2)CC1` [osanetant, N-(1-{3-[(3R)-1-benzoyl-3-(3,4-dichlorophenyl)piperidin-3-yl]propyl}-4-phenylpiperidin-4-yl)-N-methylacetamide], at Nk3R, the “SIS-induced decreased social interaction (time in social zone)” value is on record as “blocked; also recorded: attenuated”. Moreover, the blood-brain barrier passage result in series [1] is on record as “crosses the blood-brain barrier”.

`C[N+]1([O-])CCN(C2=Nc3cc(Cl)ccc3Nc3ccccc32)CC1` [CNO, clozapine-N-oxide]: the SIS-enhanced shock reactivity entry in series [2] is reported as “suppressed; also recorded: attenuated”.
